Measured values reported in ChEMBL document CHEMBL3885881, “DrugMatrix”.

Organism: Rattus norvegicus
Assay: DrugMatrix - Regimen: Daily Repeat
Assay type: toxicity, organism-based, Sprague-Dawley
Design: regimen Daily Repeat, gender Male, age 6-8 weeks
Conditions: in vivo, po, route oral GAVAGE, […]; for ABSOLUTE BASOPHIL / ABSOLUTE EOSINOPHIL / ABSOLUTE LYMPHOCYTE / ABSOLUTE MONOCYTE / ABSOLUTE SEGMENTED NEUTROPHIL / BASOPHIL / EOSINOPHIL / ERYTHROCYTE COUNT / HEMATOCRIT / HEMOGLOBIN / LEUKOCYTE COUNT / LYMPHOCYTE / MEAN CORPUSCULAR HEMOGLOBIN / MEAN CORPUSCULAR HEMOGLOBIN CONCENTRATION / MEAN CORPUSCULAR VOLUME / MONOCYTE / NEUTROPHIL / NUCLEATED RED BLOOD CELLS / PLATELET COUNT: tissue Blood; for ALANINE AMINOTRANSFERASE / ALBUMIN / ALKALINE PHOSPHATASE / ASPARTATE AMINOTRANSFERASE / BLOOD UREA NITROGEN / CARBON DIOXIDE / CHLORIDE / CHOLESTEROL / CREATINE PHOSPHOKINASE / CREATININE / GLUCOSE / LACTATE DEHYDROGENASE / LIPASE / PHOSPHORUS / POTASSIUM / SODIUM / TOTAL BILIRUBIN / TOTAL PROTEIN / URIC ACID: tissue Plasma
[1] = 11 mg/kg, 120 h, dose level High, time 5 day
[2] = 72 h, dose 0.26 mg/Kg, dose level Low, time 3 day
[3] = 120 h, dose 0.26 mg/Kg, dose level Low, time 5 day

## C[C@H]1O[C@@H](O[C@H]2[C@@H](O)C[C@H](O[C@H]3[C@@H](O)C[C@H](O[C@H]4CC[C@@]5(C)[C@H](CC[C@@H]6[C@@H]5C[C@@H](O)[C@]5(C)[C@@H](C7=CC(=O)OC7)CC[C@]65O)C4)O[C@@H]3C)O[C@@H]2C)C[C@H](O)[C@@H]1O [DIGOXIN]
[1]
  ABSOLUTE BASOPHIL: 0 CELLS/uL
  ABSOLUTE EOSINOPHIL: 21.33 CELLS/uL
  ABSOLUTE LYMPHOCYTE: 5911 CELLS/uL
  ABSOLUTE MONOCYTE: 0 CELLS/uL
  ABSOLUTE SEGMENTED NEUTROPHIL: 367.67 CELLS/uL
  BASOPHIL: 0%
  EOSINOPHIL: 0.33%
  ERYTHROCYTE COUNT: 6.17 x10E6/uL
  HEMATOCRIT: 38.03%
  HEMOGLOBIN: 15.03 G/DL
  LEUKOCYTE COUNT: 6.3 x10E3/uL
  LYMPHOCYTE: 94.33%
  MEAN CORPUSCULAR HEMOGLOBIN: 24.37 pg
  MEAN CORPUSCULAR HEMOGLOBIN CONCENTRATION: 39.53 G/DL
  MEAN CORPUSCULAR VOLUME: 61.63 fL
  MONOCYTE: 0%
  NEUTROPHIL: 5.33%
  NUCLEATED RED BLOOD CELLS: 0 /100WBC
  PLATELET COUNT: 1098 x10E3/uL
  ALANINE AMINOTRANSFERASE: 90 u/L
  ALBUMIN: 4.37 G/DL
  ALKALINE PHOSPHATASE: 342 u/L
  ASPARTATE AMINOTRANSFERASE: 79.67 u/L
  BLOOD UREA NITROGEN: 9.33 mg/dL
  CARBON DIOXIDE: 32.67 mmol/L
  CHLORIDE: 95 MEQ/L
  CHOLESTEROL: 90.67 mg/dL
  CREATINE PHOSPHOKINASE: 208.33 u/L
  CREATININE: 0.11 mg/dL
  GLUCOSE: 175.67 mg/dL
  LACTATE DEHYDROGENASE: 92 u/L
  LIPASE: 9.33 u/L
  PHOSPHORUS: 9.27 mg/dL
  POTASSIUM: 4.94 MEQ/L
  SODIUM: 141.5 MEQ/L
  TOTAL BILIRUBIN: 0.17 mg/dL
  TOTAL PROTEIN: 6.23 G/DL
  URIC ACID: 0.5 mg/dL
[2]
  ABSOLUTE BASOPHIL: 0 CELLS/uL
  ABSOLUTE EOSINOPHIL: 80.67 CELLS/uL
  ABSOLUTE LYMPHOCYTE: 8480.33 CELLS/uL
  ABSOLUTE MONOCYTE: 0 CELLS/uL
  ABSOLUTE SEGMENTED NEUTROPHIL: 705.67 CELLS/uL
  BASOPHIL: 0%
  EOSINOPHIL: 0.67%
  ERYTHROCYTE COUNT: 5.56 x10E6/uL
  HEMATOCRIT: 34.27%
  HEMOGLOBIN: 13.27 G/DL
  LEUKOCYTE COUNT: 9.27 x10E3/uL
  LYMPHOCYTE: 91.67%
  MEAN CORPUSCULAR HEMOGLOBIN: 23.83 pg
  MEAN CORPUSCULAR HEMOGLOBIN CONCENTRATION: 38.73 G/DL
  MEAN CORPUSCULAR VOLUME: 61.63 fL
  MONOCYTE: 0%
  NEUTROPHIL: 7.67%
  NUCLEATED RED BLOOD CELLS: 0 /100WBC
  PLATELET COUNT: 1014 x10E3/uL
  ALANINE AMINOTRANSFERASE: 79.33 u/L
  ALBUMIN: 3.97 G/DL
  ALKALINE PHOSPHATASE: 406.67 u/L
  ASPARTATE AMINOTRANSFERASE: 82.67 u/L
  BLOOD UREA NITROGEN: 14.67 mg/dL
  CARBON DIOXIDE: 34 mmol/L
  CHLORIDE: 101.33 MEQ/L
  CHOLESTEROL: 79.33 mg/dL
  CREATINE PHOSPHOKINASE: 157.33 u/L
  CREATININE: 0.12 mg/dL
  GLUCOSE: 161 mg/dL
  LACTATE DEHYDROGENASE: 84 u/L
  LIPASE: 10 u/L
  PHOSPHORUS: 9.57 mg/dL
  POTASSIUM: 6.36 MEQ/L
  SODIUM: 146.27 MEQ/L
  TOTAL BILIRUBIN: 0.27 mg/dL
  TOTAL PROTEIN: 5.63 G/DL
  URIC ACID: 1.2 mg/dL
[3]
  ABSOLUTE BASOPHIL: 0 CELLS/uL
  ABSOLUTE EOSINOPHIL: 0 CELLS/uL
  ABSOLUTE LYMPHOCYTE: 13719.67 CELLS/uL
  ABSOLUTE MONOCYTE: 0 CELLS/uL
  ABSOLUTE SEGMENTED NEUTROPHIL: 1313.67 CELLS/uL
  BASOPHIL: 0%
  EOSINOPHIL: 0%
  ERYTHROCYTE COUNT: 5.8 x10E6/uL
  HEMATOCRIT: 35.03%
  HEMOGLOBIN: 13.67 G/DL
  LEUKOCYTE COUNT: 15.03 x10E3/uL
  LYMPHOCYTE: 90.33%
  MEAN CORPUSCULAR HEMOGLOBIN: 23.57 pg
  MEAN CORPUSCULAR HEMOGLOBIN CONCENTRATION: 39.03 G/DL
  MEAN CORPUSCULAR VOLUME: 60.4 fL
  MONOCYTE: 0%
  NEUTROPHIL: 9.67%
  NUCLEATED RED BLOOD CELLS: 0 /100WBC
  PLATELET COUNT: 1074 x10E3/uL
  ALANINE AMINOTRANSFERASE: 64.67 u/L
  ALBUMIN: 4.03 G/DL
  ALKALINE PHOSPHATASE: 401.33 u/L
  ASPARTATE AMINOTRANSFERASE: 82.67 u/L
  BLOOD UREA NITROGEN: 15.33 mg/dL
  CARBON DIOXIDE: 31.67 mmol/L
  CHLORIDE: 100.33 MEQ/L
  CHOLESTEROL: 58.67 mg/dL
  CREATINE PHOSPHOKINASE: 259 u/L
  CREATININE: 0.14 mg/dL
  GLUCOSE: 148.33 mg/dL
  LACTATE DEHYDROGENASE: 110 u/L
  LIPASE: 9.33 u/L
  PHOSPHORUS: 9.93 mg/dL
  POTASSIUM: 5.45 MEQ/L
  SODIUM: 144.47 MEQ/L
  TOTAL BILIRUBIN: 0.2 mg/dL
  TOTAL PROTEIN: 5.73 G/DL
  URIC ACID: 0.7 mg/dL
